Measured values as given in paper PMC2360155, “Novel retinoic acid metabolism blocking agents have potent inhibitory activities on human breast cancer cells and tumour growth” (British Journal of Cancer, 2007).

What was measured:
CRABPII = target: T1, CRABPII (Mus musculus, UniProt P22935); assay: CRABP competition binding assay, CRABPII; settings: for IC50: competition with [3H]-all-trans-RA
T1 construct: Wild-type full-length cDNAs for mouse CRABPI and CRABPII were subcloned into the prokaryotic expression vector pRSETB; pRSETB vector fusion leader (purified on Ni-NTA, so a His tag); made in house; host or cells: Escherichia coli BL21(DE3)pLys
T1 sequence (P22935 1-138): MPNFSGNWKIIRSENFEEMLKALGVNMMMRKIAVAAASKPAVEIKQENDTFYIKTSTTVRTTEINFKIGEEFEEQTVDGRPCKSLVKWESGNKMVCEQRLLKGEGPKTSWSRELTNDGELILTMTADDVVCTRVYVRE
Experimental: Wild-type full-length cDNAs for mouse CRABPI and CRABPII were subcloned into the prokaryotic expression vector pRSETB and transformed into Escherichia coli strain BL21(DE3)pLys ([Chen et al, 1995]). Recombinant fusion proteins were prepared essentially as we have described previously using Ni-NTA resin ([Chen et al, 1995]). The binding of each RAMBA to CRABPI and CRABPII was determined by competition binding assays as described previously ([Chen et al, 1995]). […] IC50 values were calculated as described above in the RAR binding studies.

T47D cells [1] = assay: Cell cycle analysis by flow cytometry (PI), T47D; format: cell-based, human; settings: 5 μM, 6 days (4-HPR 4 days)
Experimental: MCF-7 and T47D cells were plated in T-25 flasks and allowed to adhere for about 18 h. The cells were then synchronised by growing them in low-serum OPTI-MEM I medium for 2 days. […] After 6-day treatment, the cells were trypsinised, washed twice with PBS, centrifuged at 2500 r.p.m. to obtain a cell pellet. The cells (about 1–2 × 10^6) were fixed with 3 ml of 70% ethanol (by adding drop-wise and taking care that the cells are not clumped together). Cells were kept at −20°C until further analysis (at least overnight). Next, cells (∼1–2 × 10^6) were stained with 1 ml of propidium iodide (PI) (50 μg ml^−1)/RNase (100 μg ml^−1) solution and after about half an hour the fluorescence of stained nuclei (15 000 events) was analysed by flow cytometry (Becton Dickinson FACScan Instrument and quantification by Modfit LT version 3.1 software) with excitation wavelength of 488 nm. The percentage of G1, S, G2/M and sub-G1 (apoptotic cells) in the population of treated and untreated cells were determined.

T47D cells [2] = test system: T47D cells; set-up: method as in Patel et al. (2004); settings: inhibition of cell proliferation by 50%; ref Patel et al. (2004); read-out: Cellular IC50, T47D; cited from earlier work
RARβ = target: T2, RARβ (Mus musculus, UniProt P22605); assay: Retinoid receptor competition binding assay, RARβ; settings: competition with 1.0 nM [3H]-all-trans-RA
T2 construct: expressed in transfected cells; host or cells: CV-1 cells
T2 sequence (P22605 1-448 isoform P22605-3): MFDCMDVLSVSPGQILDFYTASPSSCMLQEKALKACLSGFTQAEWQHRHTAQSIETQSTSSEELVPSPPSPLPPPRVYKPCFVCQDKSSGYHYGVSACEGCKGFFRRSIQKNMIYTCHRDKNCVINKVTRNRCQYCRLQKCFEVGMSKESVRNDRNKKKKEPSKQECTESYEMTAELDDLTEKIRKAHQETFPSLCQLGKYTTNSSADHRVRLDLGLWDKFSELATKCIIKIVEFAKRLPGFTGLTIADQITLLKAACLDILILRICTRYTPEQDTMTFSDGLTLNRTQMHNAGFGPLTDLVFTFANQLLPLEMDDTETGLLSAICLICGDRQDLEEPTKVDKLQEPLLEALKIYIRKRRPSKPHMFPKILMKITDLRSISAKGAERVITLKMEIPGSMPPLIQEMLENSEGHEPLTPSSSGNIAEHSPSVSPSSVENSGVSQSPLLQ

RARγ [3] = target: T3, RARγ (Mus musculus, UniProt P18911); assay: Retinoid receptor competition binding assay, RARγ; settings: competition with 1.0 nM [3H]-all-trans-RA
T3 construct: expressed in transfected cells; host or cells: CV-1 cells
T3 sequence (P18911 1-458): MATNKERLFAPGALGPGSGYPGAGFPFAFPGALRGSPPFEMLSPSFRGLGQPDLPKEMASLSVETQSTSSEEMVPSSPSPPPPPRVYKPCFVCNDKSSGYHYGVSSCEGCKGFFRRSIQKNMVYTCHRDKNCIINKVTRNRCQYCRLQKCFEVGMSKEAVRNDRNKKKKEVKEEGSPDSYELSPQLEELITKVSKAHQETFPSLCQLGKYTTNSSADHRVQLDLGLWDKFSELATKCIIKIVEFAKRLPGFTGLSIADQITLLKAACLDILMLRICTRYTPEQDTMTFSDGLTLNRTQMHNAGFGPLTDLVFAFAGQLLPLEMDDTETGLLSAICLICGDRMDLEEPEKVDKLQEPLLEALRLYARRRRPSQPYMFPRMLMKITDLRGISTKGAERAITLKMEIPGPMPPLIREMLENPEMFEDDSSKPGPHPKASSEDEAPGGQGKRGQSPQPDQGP

RARα = target: T4, RARα (Mus musculus, UniProt P11416); assay: Transactivation assay (RARE-CAT reporter, CV-1 cells), RARα; format: cell-based; settings: 50% of maximal activity obtained with 10^−6 M all-trans-RA
T4 sequence (P11416 1-462): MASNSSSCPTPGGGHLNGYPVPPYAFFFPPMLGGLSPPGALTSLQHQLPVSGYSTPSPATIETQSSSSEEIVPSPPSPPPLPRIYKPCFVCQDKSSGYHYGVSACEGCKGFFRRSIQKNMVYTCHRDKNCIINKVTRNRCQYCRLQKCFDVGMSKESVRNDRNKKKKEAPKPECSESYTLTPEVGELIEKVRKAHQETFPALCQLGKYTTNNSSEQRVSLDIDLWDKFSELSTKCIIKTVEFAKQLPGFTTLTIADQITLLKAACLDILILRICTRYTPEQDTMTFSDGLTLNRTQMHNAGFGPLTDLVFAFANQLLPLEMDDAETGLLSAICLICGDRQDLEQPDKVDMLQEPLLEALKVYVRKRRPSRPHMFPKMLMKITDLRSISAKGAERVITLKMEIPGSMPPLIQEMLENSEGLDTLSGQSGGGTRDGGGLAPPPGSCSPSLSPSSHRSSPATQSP
Experimental: (§1) Briefly, CV-1 cells were cotransfected with 4 μg RAR subtype (RARα, RARβ or RARγ) expression vector construct in pSG5, 4 μg RARE-CAT reporter DNA and 1 μg pCMV-β-gal DNA. Twenty-four hours following transfection, the cells were treated with various concentrations of each RAMBA ranging from 10^−11–10^−5 M along with an ethanol carrier control. Additional cells were treated with 10^−6 M all-trans-RA for normalisation. Twenty-four hours later, the cells were harvested and CAT and β-gal activities were assayed.

RARγ [4] = target: T3, RARγ; assay: Transactivation assay (RARE-CAT reporter, CV-1 cells), RARγ; format: cell-based; settings: 50% of maximal activity obtained with 10^−6 M all-trans-RA
Experimental: as §1

Compound	Kd (CRABPII; for comparison) [nM]	G2/M (%) (T47D cells [1])	Go/G1 (%) (T47D cells [1])	S (%) (T47D cells [1])	Sub-G1 (%) (T47D cells [1])	IC50 (T47D cells [2]) [nM]	IC50 (CRABPII) [nM]	IC50 (RARβ) [nM]	IC50 (RARγ [3]) [nM]	EC50 (RARα) [nM]	EC50 (RARγ [4]) [nM]
CC1=C(/C=C/C(C)=C/C=C/C(C)=C/C(=O)O)C(C)(C)CCC1 [ATRA, all-trans-retinoic acid, reference compound]	60	13.03±4.06	83.89±0.96	3.1±1.3	17.12±4.06	8	–	–	–	–	–
CC1=C(/C=C/C(C)=C/C=C/C(C)=C/C(=O)O)C(C)(C)CCC1n1ccnc1 (centres unmarked) [VN/14-1]	–	20.85±3.75	77.98±2.56	1.18±1.0	22.38±2.95	3	> 500	200	16	300	1000
CC1=C(/C=C/C(C)=C/C=C/C(C)=C/C(=O)Nc2ccc(O)cc2)C(C)(C)CCC1n1ccnc1 (centres unmarked) [VN/66-1]	–	19.57±0.21	80.44±0.20	0	26.41±1.18	570	> 500	> 1000	> 1000	> 10000	> 10000
CC1=C(/C=C/C(C)=C/C=C/C(C)=C\C(=O)Nc2ccc(O)cc2)C(C)(C)CCC1n1ccnc1 (centres unmarked) [VN/69-1]	–	21.01±0.99	78.99±0.99	0	24.34±1.24	–	> 500	> 1000	> 1000	> 10000	> 10000
